Reference: article PMC4077772, “Evolutionary Origin of GnIH and NPFF in Chordates: Insights from Novel Amphioxus RFamide Peptides” (PLoS ONE, 2014)
Where no end group is shown, it is not given here.

Tests used:
[1] = test system: CRE-luciferase activity; details: ref [41]; cited from earlier work
Excerpt: (§1) We conducted in vitro assays to analyze whether the amphioxus PQRFa peptides have a biological activity.

[2] = test system: cAMP levels; details: ref [42]; cited from earlier work
Excerpt: as §1

[3] = test system: amphioxus PQRFa-R1; test: FSK-induced CRE-luciferase reporter assay, COS-7 cells transfected with amphioxus PQRFa-R1; format: cell-based, Branchiostoma japonicum; details: 6 h, COS-7 cells with PQRFa-R1, tested 10^−10−10^−6 M, dual-luciferase, fold activation over basal, mean ± SEM (n=4−6), Figure 6
Method: COS-7 cells were maintained in Dulbecco's modified Eagle's medium (DMEM; GIBCO/Invitrogen, Carlsbad, CA) supplemented with high glucose (4.5 g/L) containing 10% fetal bovine serum (GIBCO/Invitrogen) and 1% penicillin/streptomycin antibiotics (GIBCO/Invitrogen) in a humidified 5% CO2 atmosphere at 37°C. For luciferase assay, COS-7 cells were plated in 24-well plates and grown to 70–80% confluence for 24 h before transfection. Cells were then co-transfected with 200 ng of p3XFLAG-CMV-14 expression vector (Sigma-Aldrich Co., St Louis, MO) containing the amphioxus PQRFa-R1, PQRFa-R2, or empty vector, 200 ng of the pGL4.29[luc2P/CRE/Hygro] […] Cell extracts were prepared, and luciferase activity was measured using the dual-luciferase reporter assay system (Promega). […] Statistical significance was assessed by Prism statistical software (GraphPad Software Inc., La Jolla, CA). […]
Figure 5 Effect of amphioxus PQRFa peptides on forskolin (FSK)-induced or basal CRE-luciferase activity. […] The effect of amphioxus PQRFa peptides on basal CRE-luciferase activity was also tested in COS-7 cells transfected with amphioxus PQRFa-R1 or R2.The relative luciferase activity was measured from cell lysates and expressed as fold activation over the respective basal levels. […]

[4] = test system: pituitary; details: lamprey GnIH; ref [24]; cited from earlier work
Excerpt: as §1

FLFQPQRFamide [NPFF, pain modulatory neuropeptide with a C-terminal Pro-Gln-Arg-Phe-NH2 motif]
effect on FSK-stimulated CRE-luciferase activity [1]: inhibited FSK-stimulated CRE-luciferase activity | effect on cAMP levels [2]: inhibited cAMP levels

GRDQGWRPQRF-NH2 [PQRFa-3]
inhibition of FSK-induced CRE-luciferase activity (dose-dependent study) ([3]; 10^−6 M peptide): inhibited FSK-induced CRE-luciferase activity | inhibition of FSK-induced CRE-luciferase activity (dose-dependent study) ([3]; 10^−7 M peptide): inhibited FSK-induced CRE-luciferase activity

SEPFWHRTRPQRF-NH2 [Lamprey GnIH (LPXRFa peptide-2), lamprey GnIH ortholog]
effect on expression of GTHβ mRNA in the pituitary [4]: increased the expression of GTHβ mRNA
